Assay results published in US11427575B2, “Antitumor compound for activating JWA gene and degrading HER2, preparation method thereof, and application thereof” (SIMCERE PHARMACEUTICAL CO., LTD., priority 2019, dated 2022).

Tests used:
[1] = Serum biochemical indexes in tumor-bearing nude mice; conditions: particularly 100 mg/kg, vs blank control
From the text: A model of nude mice subcutaneously transplanted with human breast cancer cells was built with reference to the method of Example 16. The laboratory mice that have been modeled were anesthetized to determine whether damage occurred to the major organs in the mouse body. Whole blood was collected from the anesthetized mice, and the serum was separated and used to detect a change in the serum biochemical indexes using an automatic biochemistry analyzer.

promoter of JWA gene = assay: Luciferase reporter gene under control of JWA gene promoter in HBE cells (high-throughput screening); type: cell-based, human; conditions: for fluorescence intensity of reporter gene: 48 h
From the text: High-throughput screening (HTS) was used to identify the human bronchial epithelial (HBE) cells stably transfected with a DNA construct with a luciferase gene under control of a 2,000 bp long promoter of JWA gene.
FIG. 1 is a sequence containing the 2000 bp promoter sequence of JWA gene that was used for a luciferase reporter gene plasmid construction.

HER2 protein = assay: Western blot in BGC823 gastric cancer cells (JWA WT and JWA KO), HER2; type: cell-based, human; conditions: 10 μM, 48 h
From the text: A HER2-positive BGC823 human gastric cancer cell line was established in which JWA gene was deleted using Crisp/cas9 technology. […] After protein extraction, western blotting technology was used to determine the expression levels of JWA and HER2 proteins in the wild-type cell line (JWA WT) and the JWA-knockout cell line (JWA KO).

[2] = test system: BT474 human breast cancer cells; assay: Tumor growth in nude mice subcutaneously transplanted with BT474 cells; type: in vivo, BALB/c nude mice; conditions: for tumor growth (tumor volume): vs blank control; for tumor weight / tumor weight/mouse body weight ratio: P<0.05
Protocol: BT474 human breast cancer cells in the logarithmic growth phase were suspended in ice-cold suspension buffer for a final concentration of 5×10^6/100 μL, followed by subcutaneous transplantations of the suspended cells into BALB/c nude mice. When the tumor grown up to 75-125 mm^3, the BALB/c nude mice were randomly divided into five equal groups, including a blank control group (Mock), a solvent control group (Vehicle), a 50 mg/kg JAC1 treatment group, a 100 mg/kg JAC1 treatment group, and a positive control group treated with Pacilitaxel and Trastuzumab (TH). Dose and administration: JAC1 was injected intraperitoneally into mice once daily; the dosage of Trastuzumab was 10 mg/kg injected intraperitoneally twice a week; the dosage of Pacilitaxel was 20 mg/kg injected intraperitoneally once a week. From the day of administration, mouse body weights and tumor diameters were measured every other 2 days, and the tumor volume was calculated using an equation. When the mice reached a humane endpoint at which the tumor volume increased to 2500-3000 mm^3, the research based on the mouse models was terminated and the laboratory mice were anesthetized and euthanized in a timely manner to alleviate animal suffering and perform the statistical analysis.

JWA protein [3] = assay: Western blot of subcutaneous BT474 tumors, JWA; type: in vivo, BALB/c nude mice; conditions: treatment group
Protocol: BT474 human breast cancer cells in the logarithmic growth phase were suspended in ice-cold suspension buffer for a final concentration of 5×10^6/100 μL, followed by subcutaneous transplantations of the suspended cells into BALB/c nude mice. When the tumor grown up to 75-125 mm^3, the BALB/c nude mice were randomly divided into five equal groups, including a blank control group (Mock), a solvent control group (Vehicle), a 50 mg/kg JAC1 treatment group, a 100 mg/kg JAC1 treatment group, and a positive control group treated with Pacilitaxel and Trastuzumab (TH). Dose and administration: JAC1 was injected intraperitoneally into mice once daily; the dosage of Trastuzumab was 10 mg/kg injected intraperitoneally twice a week; the dosage of Pacilitaxel was 20 mg/kg injected intraperitoneally once a week. From the day of administration, mouse body weights and tumor diameters were measured every other 2 days, and the tumor volume was calculated using an equation. When the mice reached a humane endpoint at which the tumor volume increased to 2500-3000 mm^3, the research based on the mouse models was terminated and the laboratory mice were anesthetized and euthanized in a timely manner to alleviate animal suffering and perform the statistical analysis. […]

JWA protein [4] = assay: Laser confocal immunofluorescence in HER2-positive breast cancer cells, JWA; type: cell-based, human; conditions: immunofluorescence, 0, 1, 10 μM, 24 h
Protocol: The cells were inoculated into a 35 mm glass bottom dish, treated with different concentrations (0, 1, and 10 μM) of JAC1 for 24 h, fixed with methanol for 15 min, washed three times with PBST, blocked with normal sheep serum for 1 h, and incubated in primary antibody overnight at 4° C. The cells were then washed three times with PBST, incubated in fluorescent secondary antibody and 4′,6-diamidino-2-phenylindole (DAPI), and photographed using a laser confocal scanning microscopy.

JWA protein [5] = assay: Western blot in HER2-positive breast cancer cells, JWA; type: cell-based, human; conditions: increasing concentration, 24 h
Protocol: The cells in the logarithmic growth phase were routinely digested, and transferred into 6-well plates at the cell density of 40%-50%. The cells were incubated with different concentrations of JAC1 for 24 h, followed by an addition of 0.1 mL of Radioimmunoprecipitation Assay Butter (RIPA, containing 0.5% phenylmethylsulfonyl fluoride (PMSF)) for protein extraction. After centrifugation at 12,000×g for 15 min, the supernatant was collected, and brought to a determination of protein concentration and a boil. Protein electrophoresis was performed with 10% polyacrylamide gel. The protein was transferred into the gel wells for 40 μg protein per well, migrated at 60 V for 30 min, and 90 V for 1.5-2 h. After gel electrophoresis, the protein was transferred by wet method from gel to a PVDF membrane, and blocked with 5% skim milk at room temperature for 1-2 h. The membrane was washed with Tris-Buffered Saline and Tween 20 (TBST, containing 0.1% Tween 20) three times for 5 min each, and incubated in the corresponding primary antibody overnight at 4° C. The membrane was then washed with the TBST (containing 0.1% Tween 20) three times for 5 min each, incubated in the secondary antibody at room temperature for 1-2 h, and washed with the TBST (containing 0.1% Tween 20) eight times for 5 min each. […]

COc1cccc2sc(Nc3nc4c(F)cccc4s3)nc12 [JAC1, 4-fluoro-N-(4-methoxybenzene (d)thiazole-2-group) benzene (d) thiazole-2-amine]
alanine transaminase (ALT) [1]: significant decreases
aspartate transaminase (AST) [1]: significant decreases
creatine kinase (CK) [1]: significant decreases
creatine kinase isoenzyme (CKMB) [1]: significant decreases
superoxide dismutase (SOD) [1]: significantly increased
triglyceride (TG) [1]: significant decreases
fluorescence intensity of reporter gene (promoter of JWA gene; 0.05 μg/mL): 13560.00
fluorescence intensity of reporter gene (promoter of JWA gene; 0.10 μg/mL): 16200.00
fluorescence intensity of reporter gene (promoter of JWA gene; 0.21 μg/mL): 21975.00
fluorescence intensity of reporter gene (promoter of JWA gene; 0.41 μg/mL): 28186.67
fluorescence intensity of reporter gene (promoter of JWA gene; 0.83 μg/mL): 38760.00
fluorescence intensity of reporter gene (promoter of JWA gene; 1.65 μg/mL): 54293.33
fluorescence intensity of reporter gene (promoter of JWA gene; 3.30 μg/mL): 68080.00
activation of JWA gene (promoter of JWA gene; result in words): particularly significant effect on activation of JWA gene
HER2 expression level (HER2 protein; BGC823 JWA KO): no effect
HER2 expression (HER2 protein; BGC823 JWA WT): repress HER2 expression
tumor growth (tumor volume) ([2]; 50 mg/kg intraperitoneally once daily): obvious results at suppressing tumor growth
Tumor growth inhibition rate ([2]; 50 mg/kg ip once daily): 31.22%
tumor weight ([2]; 50 mg/kg ip once daily): reduced
tumor weight/mouse body weight ratio ([2]; 50 mg/kg ip once daily): decreased
tumor growth (tumor volume) ([2]; 100 mg/kg intraperitoneally once daily): obvious results at suppressing tumor growth
Tumor growth inhibition rate ([2]; 100 mg/kg ip once daily): 46.21%
tumor weight ([2]; 100 mg/kg ip once daily): reduced
tumor weight/mouse body weight ratio ([2]; 100 mg/kg ip once daily): decreased
JWA protein level in tumor (JWA protein [3]): significantly increased
JWA protein level (JWA protein [4]): JWA protein level increased
JWA protein level (JWA protein [5]): JWA protein level increased
